# Laboratory results published in patent US20230355513A1, “PARTICLES INCLUDING CHITOSAN-BILIRUBIN CONJUGATE, AND ORAL PHARMACEUTICAL COMPOSITION INCLUDING SAME” (KOREA ADVANCED INSTITUTE OF SCIENCE AND TECHNOLOGY, priority 2021, published 2023).
# System: mouse inflammatory bowel disease model (DSS)
# Experiment: Efficacy in mouse inflammatory bowel disease model with 5-ASA control (Example 7)
# Type: in vivo
# Conditions: 50 mg/kg, compared with the other groups
# Excerpt: As the symptoms of inflammatory bowel disease were aggravated, systemic inflammations may be caused through the release of inflammatory cytokines in the blood, and therefore, an effective anti-inflammatory medicine was thought to inhibit the release of inflammatory substances in the spleen, liver, kidney, or the like to prevent the inflammations, and thus this was investigated.
structure (smiles),measurement,value
"Nc1ccc(O)c(C(=O)O)c1 [5-ASA, 5-aminosalicylic acid]",spleen weight,spleen weight was high
